In PubChem BioAssay AID1259407 (Chemical Carcinogenesis Research Information System (CCRIS), 2018):
Entries after “also recorded” stand apart in the source; their conditions may differ. Calls of active or inactive are those of the source. How the calls were made is not given here.

Tested on: CCRIS mutagenicity, Ames/micronucleus/aberration tests
Assay: CCRIS mutagenicity studies
[1] = Test System: AMES SALMONELLA TYPHIMURIUM, Strain/Indicator: TA97, Metabolic Activation: HAMSTER, LIVER, S-9, AROCLOR 1254 (10 OR 30%), Method: PREINCUBATION
[2] = Test System: AMES SALMONELLA TYPHIMURIUM, Strain/Indicator: TA97, Metabolic Activation: NONE, Method: PREINCUBATION
[3] = Test System: AMES SALMONELLA TYPHIMURIUM, Strain/Indicator: TA97, Metabolic Activation: RAT, LIVER, S-9, AROCLOR 1254 (10 OR 30%), Method: PREINCUBATION
[4] = Test System: AMES SALMONELLA TYPHIMURIUM, Strain/Indicator: TA98, Metabolic Activation: HAMSTER, LIVER, S-9, AROCLOR 1254 (10 OR 30%), Method: PREINCUBATION
[5] = Test System: AMES SALMONELLA TYPHIMURIUM, Strain/Indicator: TA98, Metabolic Activation: NONE, Method: PREINCUBATION
[6] = Test System: AMES SALMONELLA TYPHIMURIUM, Strain/Indicator: TA98, Metabolic Activation: RAT, LIVER, S-9, AROCLOR 1254 (10 OR 30%), Method: PREINCUBATION
[7] = Test System: AMES SALMONELLA TYPHIMURIUM, Strain/Indicator: TA100, Metabolic Activation: HAMSTER, LIVER, S-9, AROCLOR 1254 (10 OR 30%), Method: PREINCUBATION
[8] = Test System: AMES SALMONELLA TYPHIMURIUM, Strain/Indicator: TA100, Metabolic Activation: NONE, Method: PREINCUBATION
[9] = Test System: AMES SALMONELLA TYPHIMURIUM, Strain/Indicator: TA100, Metabolic Activation: RAT, LIVER, S-9, AROCLOR 1254 (10 OR 30%), Method: PREINCUBATION
[10] = Test System: AMES SALMONELLA TYPHIMURIUM, Strain/Indicator: TA1535, Metabolic Activation: HAMSTER, LIVER, S-9, AROCLOR 1254 (10 OR 30%), Method: PREINCUBATION
[11] = Test System: AMES SALMONELLA TYPHIMURIUM, Strain/Indicator: TA1535, Metabolic Activation: NONE, Method: PREINCUBATION
[12] = Test System: AMES SALMONELLA TYPHIMURIUM, Strain/Indicator: TA1535, Metabolic Activation: RAT, LIVER, S-9, AROCLOR 1254 (10 OR 30%), Method: PREINCUBATION
[13] = Test System: AMES SALMONELLA TYPHIMURIUM, Strain/Indicator: TA1537, Metabolic Activation: NONE, Method: PREINCUBATION
[14] = Test System: AMES SALMONELLA TYPHIMURIUM, Strain/Indicator: TA98, Metabolic Activation: RAT, LIVER, S-9, AROCLOR 1254, Method: PREINCUBATION
[15] = Test System: AMES SALMONELLA TYPHIMURIUM, Strain/Indicator: TA100, Metabolic Activation: RAT, LIVER, S-9, AROCLOR 1254, Method: PREINCUBATION

| Compound | mutagenic call [1] | mutagenic call [2] | mutagenic call [3] | mutagenic call [4] | mutagenic call [5] | mutagenic call [6] | mutagenic call [7] | mutagenic call [8] | mutagenic call [9] | mutagenic call [10] | mutagenic call [11] | mutagenic call [12] | mutagenic call [13] | mutagenic call [14] | mutagenic call [15] | other results |
| --- | --- | --- | --- | --- | --- | --- | --- | --- | --- | --- | --- | --- | --- | --- | --- | --- |
| NC(=O)c1ccccc1O | inactive; negative | inactive; negative | inactive; negative | inactive; negative | inactive; negative | inactive; negative | inactive; negative | inactive; negative | inactive; negative | inactive; negative | inactive; negative | inactive; negative |  |  |  | mutagenic call (Test System: AMES SALMONELLA TYPHIMURIUM, Strain/Indicator: TA98, Metabolic Activation: GUINEA PIG, LIVER, S-9, PCB, Method: PREINCUBATION): inactive; negative; mutagenic call (Test System: AMES SALMONELLA TYPHIMURIUM, Strain/Indicator: TA98, Metabolic Activation: HAMSTER, LIVER, S-9, PCB, Method: PREINCUBATION): inactive; negative; mutagenic call (Test System: AMES SALMONELLA TYPHIMURIUM, Strain/Indicator: TA98, Metabolic Activation: MOUSE, LIVER, S-9, PCB, Method: PREINCUBATION): inactive; negative; mutagenic call (Test System: AMES SALMONELLA TYPHIMURIUM, Strain/Indicator: TA98, Metabolic Activation: RAT, LIVER, S-9, PCB, Method: PREINCUBATION): inactive; negative; mutagenic call (Test System: AMES SALMONELLA TYPHIMURIUM, Strain/Indicator: TA100, Metabolic Activation: GUINEA PIG, LIVER, S-9, PCB, Method: PREINCUBATION): inactive; negative; mutagenic call (Test System: AMES SALMONELLA TYPHIMURIUM, Strain/Indicator: TA100, Metabolic Activation: HAMSTER, LIVER, S-9, PCB, Method: PREINCUBATION): inactive; negative; mutagenic call (Test System: AMES SALMONELLA TYPHIMURIUM, Strain/Indicator: TA100, Metabolic Activation: MOUSE, LIVER, S-9, PCB, Method: PREINCUBATION): inactive; negative; mutagenic call (Test System: AMES SALMONELLA TYPHIMURIUM, Strain/Indicator: TA100, Metabolic Activation: RAT, LIVER, S-9, PCB, Method: PREINCUBATION): inactive; negative |
| [S]=[Co] |  |  |  |  |  |  |  |  |  |  |  |  |  |  |  | mutagenic call (Test System: CHINESE HAMSTER G10, Strain/Indicator: G10 (GPT)/6-THIOGUANINE, Metabolic Activation: NONE): inactive; negative; mutagenic call (Test System: CHINESE HAMSTER G12, Strain/Indicator: G12 (GPT)/6-THIOGUANINE, Metabolic Activation: NONE): active; positive; mutagenic call (Test System: CHINESE HAMSTER V-79, Strain/Indicator: V-79 (HPRT)/6-THIOGUANINE, Metabolic Activation: NONE): inactive; negative |
| Oc1ccc(Cl)c(Cl)c1Cl | inactive; negative | inactive; negative | inactive; negative | inactive; negative | inactive; negative | inactive; negative | inactive; negative | inactive; negative | inactive; negative | inactive; negative | inactive; negative | inactive; negative | inactive; negative |  |  | mutagenic call (End Point: IN VITRO CHROMOSOMAL ABERRATIONS, Test System: CHINESE HAMSTER LUNG CELLS (CHL), Metabolic Activation: NONE): inactive; negative; mutagenic call (End Point: IN VITRO CHROMOSOMAL ABERRATIONS, Test System: CHINESE HAMSTER LUNG CELLS (CHL), Metabolic Activation: RAT, LIVER, S-9, KC-400): inactive; negative; mutagenic call (End Point: IN VITRO CHROMOSOMAL ABERRATIONS, Test System: CHINESE HAMSTER OVARY CELLS (CHO), Metabolic Activation: NONE): inactive; negative; mutagenic call (End Point: IN VITRO CHROMOSOMAL ABERRATIONS, Test System: CHINESE HAMSTER OVARY CELLS (CHO), Metabolic Activation: RAT, LIVER, S-9, AROCLOR 1254): active; positive (structural changes); positive only at highest dose where a total of 25; mutagenic call (End Point: IN VITRO CHROMOSOMAL ABERRATIONS, Test System: CHL CELLS, Metabolic Activation: S-9): inactive; positive (structural changes); multilaboratory comparison among 5 labs; 4 report; also recorded: inactive; positive (structural changes); multilaboratory comparison among 6 labs; 5 report; mutagenic call (End Point: IN VITRO CHROMOSOMAL ABERRATIONS, Test System: CHO CELLS, Metabolic Activation: NONE): inactive; positive (structural changes); multilaboratory comparison among 5 labs; 4 report; also recorded: inactive; negative; multilaboratory comparison among 5 labs; 1 reported weakly positive; 4; also recorded: inactive; negative; multilaboratory comparison among 4 labs; negative except for 1 weak po; mutagenic call (End Point: IN VITRO CHROMOSOMAL ABERRATIONS, Test System: CHO CELLS, Metabolic Activation: S-9): active; positive (structural changes); multilaboratory comparison among 6 labs; all repo; also recorded: inactive; positive (structural changes); multilaboratory comparison among 5 labs; 2 report; mutagenic call (Test System: AMES SALMONELLA TYPHIMURIUM, Strain/Indicator: TA1537, Metabolic Activation: HAMSTER, LIVER, S-9, AROCLOR 1254 (30%), Method: PREINCUBATION): inactive; negative; mutagenic call (Test System: AMES SALMONELLA TYPHIMURIUM, Strain/Indicator: TA1537, Metabolic Activation: RAT, LIVER, S-9, AROCLOR 1254 (30%), Method: PREINCUBATION): inactive; negative |
| Clc1ccc(Cl)c(Cl)c1Cl |  |  |  |  | inactive; negative |  |  | inactive; negative |  |  | inactive; negative |  | inactive; negative | inactive; negative | inactive; negative | mutagenic call (End Point: IN VITRO CHROMOSOMAL ABERRATIONS, Test System: CHO-LB CELLS, Metabolic Activation: NONE): inactive; negative; mutagenic call (End Point: IN VITRO CHROMOSOMAL ABERRATIONS, Test System: CHO-LB CELLS, Metabolic Activation: RAT, LIVER, S-9, AROCLOR 1254): inactive; negative; mutagenic call (Test System: AMES SALMONELLA TYPHIMURIUM, Strain/Indicator: TA98, Metabolic Activation: HAMSTER, LIVER, S-9, AROCLOR 1254, Method: PREINCUBATION): inactive; negative; mutagenic call (Test System: AMES SALMONELLA TYPHIMURIUM, Strain/Indicator: TA100, Metabolic Activation: HAMSTER, LIVER, S-9, AROCLOR 1254, Method: PREINCUBATION): inactive; negative; mutagenic call (Test System: AMES SALMONELLA TYPHIMURIUM, Strain/Indicator: TA1535, Metabolic Activation: HAMSTER, LIVER, S-9, AROCLOR 1254, Method: PREINCUBATION): inactive; negative; mutagenic call (Test System: AMES SALMONELLA TYPHIMURIUM, Strain/Indicator: TA1535, Metabolic Activation: RAT, LIVER, S-9, AROCLOR 1254, Method: PREINCUBATION): inactive; negative; mutagenic call (Test System: AMES SALMONELLA TYPHIMURIUM, Strain/Indicator: TA1537, Metabolic Activation: HAMSTER, LIVER, S-9, AROCLOR 1254, Method: PREINCUBATION): inactive; negative; mutagenic call (Test System: AMES SALMONELLA TYPHIMURIUM, Strain/Indicator: TA1537, Metabolic Activation: RAT, LIVER, S-9, AROCLOR 1254, Method: PREINCUBATION): inactive; negative |
| Cc1cnc2ccc3c(nc(N[C@@H]4O[C@H](C(=O)O)[C@@H](O)[C@H](O)[C@H]4O)n3C)c2n1 |  |  |  |  | inactive; negative |  |  |  |  |  |  |  |  | inactive; negative |  |  |
| Nc1nc2ccc(Cl)cc2[nH]1 |  |  |  |  |  |  |  |  |  |  |  |  |  | inactive; negative | inactive; negative |  |
